According to ChEMBL document CHEMBL4507291 (2021):

Columns and labels:
[1] = molecular target: T1, Ephrin type-B receptor 4 (Homo sapiens) (UniProt P54760); assay: EPHB4 Kinase screen; conditions: Compound concentration 1.0 uM
T1 sequence (whole entry): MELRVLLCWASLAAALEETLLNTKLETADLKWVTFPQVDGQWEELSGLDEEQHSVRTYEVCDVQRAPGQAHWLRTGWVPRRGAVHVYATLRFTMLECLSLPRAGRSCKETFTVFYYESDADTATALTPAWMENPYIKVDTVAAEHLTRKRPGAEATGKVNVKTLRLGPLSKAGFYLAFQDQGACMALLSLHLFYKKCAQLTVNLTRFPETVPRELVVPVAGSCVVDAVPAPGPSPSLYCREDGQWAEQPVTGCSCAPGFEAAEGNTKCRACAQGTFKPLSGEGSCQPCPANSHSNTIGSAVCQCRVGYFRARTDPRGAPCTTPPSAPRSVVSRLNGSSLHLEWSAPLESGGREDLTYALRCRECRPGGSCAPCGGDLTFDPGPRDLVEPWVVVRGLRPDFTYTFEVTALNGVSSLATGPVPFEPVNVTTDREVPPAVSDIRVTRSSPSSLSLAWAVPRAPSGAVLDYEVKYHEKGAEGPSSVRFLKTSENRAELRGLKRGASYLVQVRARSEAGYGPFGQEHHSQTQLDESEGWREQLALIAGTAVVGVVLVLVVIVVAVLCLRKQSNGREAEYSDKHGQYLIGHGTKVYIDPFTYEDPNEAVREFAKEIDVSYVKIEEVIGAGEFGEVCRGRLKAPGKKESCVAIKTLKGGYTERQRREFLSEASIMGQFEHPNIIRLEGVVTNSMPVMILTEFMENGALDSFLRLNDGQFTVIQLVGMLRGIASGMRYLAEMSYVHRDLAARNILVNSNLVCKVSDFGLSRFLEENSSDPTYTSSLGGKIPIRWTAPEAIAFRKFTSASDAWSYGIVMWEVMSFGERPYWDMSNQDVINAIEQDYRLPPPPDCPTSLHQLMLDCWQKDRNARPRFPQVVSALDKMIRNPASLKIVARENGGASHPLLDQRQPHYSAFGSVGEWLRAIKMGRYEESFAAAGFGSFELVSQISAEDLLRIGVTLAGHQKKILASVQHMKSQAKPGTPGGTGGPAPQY

[2] = molecular target: T2, Tyrosine-protein kinase receptor TYRO3 (Homo sapiens) (UniProt Q06418); assay: TYRO3 (RSE) Kinase screen; conditions: Compound concentration 1.0 uM
T2 sequence (whole entry): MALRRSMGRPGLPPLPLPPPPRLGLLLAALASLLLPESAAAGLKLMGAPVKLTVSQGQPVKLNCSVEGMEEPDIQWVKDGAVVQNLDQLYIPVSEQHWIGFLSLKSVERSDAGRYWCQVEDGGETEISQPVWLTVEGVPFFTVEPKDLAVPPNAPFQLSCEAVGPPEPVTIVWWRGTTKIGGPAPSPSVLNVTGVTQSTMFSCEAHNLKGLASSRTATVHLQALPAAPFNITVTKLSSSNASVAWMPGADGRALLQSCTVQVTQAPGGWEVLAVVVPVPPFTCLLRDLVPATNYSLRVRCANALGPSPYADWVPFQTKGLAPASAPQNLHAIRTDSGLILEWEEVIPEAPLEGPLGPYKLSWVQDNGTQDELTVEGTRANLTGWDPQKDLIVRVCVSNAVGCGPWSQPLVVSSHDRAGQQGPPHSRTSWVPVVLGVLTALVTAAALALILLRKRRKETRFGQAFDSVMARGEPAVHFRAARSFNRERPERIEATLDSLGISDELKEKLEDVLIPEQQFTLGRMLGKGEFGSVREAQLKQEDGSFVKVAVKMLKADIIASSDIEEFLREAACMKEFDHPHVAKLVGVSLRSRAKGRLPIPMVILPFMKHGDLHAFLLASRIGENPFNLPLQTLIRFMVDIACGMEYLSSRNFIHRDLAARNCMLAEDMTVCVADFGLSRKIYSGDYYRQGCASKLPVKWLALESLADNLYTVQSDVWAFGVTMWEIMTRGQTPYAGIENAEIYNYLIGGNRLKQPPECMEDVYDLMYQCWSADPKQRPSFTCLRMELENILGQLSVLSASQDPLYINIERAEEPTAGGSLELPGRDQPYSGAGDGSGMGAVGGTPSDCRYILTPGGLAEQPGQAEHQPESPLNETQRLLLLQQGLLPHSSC

[3] = molecular target: Aurora kinase B (Homo sapiens) (UniProt Q96GD4); assay: AURKB (Aurora B) Kinase screen; conditions: Compound concentration 1.0 uM
Aurora kinase B (Homo sapiens), sequence (Q96GD4 whole entry): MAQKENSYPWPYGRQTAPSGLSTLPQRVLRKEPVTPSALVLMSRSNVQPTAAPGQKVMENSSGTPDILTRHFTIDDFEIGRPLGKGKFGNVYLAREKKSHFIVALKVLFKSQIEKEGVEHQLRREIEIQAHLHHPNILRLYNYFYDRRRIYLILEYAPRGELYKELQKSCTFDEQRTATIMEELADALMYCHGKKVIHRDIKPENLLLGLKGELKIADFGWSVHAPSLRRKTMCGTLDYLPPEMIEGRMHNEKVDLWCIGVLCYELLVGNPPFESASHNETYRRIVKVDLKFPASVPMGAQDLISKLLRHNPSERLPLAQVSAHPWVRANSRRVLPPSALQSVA

[4] = molecular target: Progesterone receptor (Homo sapiens) (UniProt P06401); assay: Inhibition of Progesterone PR-B at 10 µM in the Eurofins-Panlabs radioligand binding assay (Eurofins_assay_268020); set-up: ligand concentration 1.4 nM; conditions: Compound concentration 10.0 uM
Progesterone receptor (Homo sapiens), sequence (P06401 whole entry): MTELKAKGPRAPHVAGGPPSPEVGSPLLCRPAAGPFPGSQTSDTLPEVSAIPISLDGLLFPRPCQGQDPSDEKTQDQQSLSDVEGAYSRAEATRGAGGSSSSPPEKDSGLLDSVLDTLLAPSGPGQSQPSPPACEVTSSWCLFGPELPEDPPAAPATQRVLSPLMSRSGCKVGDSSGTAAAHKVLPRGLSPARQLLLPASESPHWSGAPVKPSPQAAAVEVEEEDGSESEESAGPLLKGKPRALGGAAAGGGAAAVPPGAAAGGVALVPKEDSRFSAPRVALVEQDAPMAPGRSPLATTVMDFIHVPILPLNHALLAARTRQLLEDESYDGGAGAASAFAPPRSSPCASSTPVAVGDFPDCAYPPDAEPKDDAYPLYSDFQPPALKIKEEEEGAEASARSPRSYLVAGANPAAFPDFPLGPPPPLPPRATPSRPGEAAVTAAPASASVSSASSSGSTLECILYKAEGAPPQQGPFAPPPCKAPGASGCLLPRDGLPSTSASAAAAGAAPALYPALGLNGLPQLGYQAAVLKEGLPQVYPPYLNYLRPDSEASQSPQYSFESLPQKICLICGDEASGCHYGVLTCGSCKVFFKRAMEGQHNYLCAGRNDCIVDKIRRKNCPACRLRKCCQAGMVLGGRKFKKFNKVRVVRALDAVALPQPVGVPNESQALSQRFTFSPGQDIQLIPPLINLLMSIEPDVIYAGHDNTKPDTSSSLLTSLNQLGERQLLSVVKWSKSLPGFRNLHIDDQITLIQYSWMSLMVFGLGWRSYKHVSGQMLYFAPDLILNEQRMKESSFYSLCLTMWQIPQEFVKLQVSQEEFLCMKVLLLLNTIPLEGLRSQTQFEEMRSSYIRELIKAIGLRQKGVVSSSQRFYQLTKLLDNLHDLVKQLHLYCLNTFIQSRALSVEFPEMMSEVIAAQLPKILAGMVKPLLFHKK

[5] = molecular target: Vascular endothelial growth factor receptor 3 (Homo sapiens) (UniProt P35916); assay: FLT4 (VEGFR3) Kinase screen; conditions: Compound concentration 1.0 uM
Vascular endothelial growth factor receptor 3 (Homo sapiens), sequence (P35916 whole entry): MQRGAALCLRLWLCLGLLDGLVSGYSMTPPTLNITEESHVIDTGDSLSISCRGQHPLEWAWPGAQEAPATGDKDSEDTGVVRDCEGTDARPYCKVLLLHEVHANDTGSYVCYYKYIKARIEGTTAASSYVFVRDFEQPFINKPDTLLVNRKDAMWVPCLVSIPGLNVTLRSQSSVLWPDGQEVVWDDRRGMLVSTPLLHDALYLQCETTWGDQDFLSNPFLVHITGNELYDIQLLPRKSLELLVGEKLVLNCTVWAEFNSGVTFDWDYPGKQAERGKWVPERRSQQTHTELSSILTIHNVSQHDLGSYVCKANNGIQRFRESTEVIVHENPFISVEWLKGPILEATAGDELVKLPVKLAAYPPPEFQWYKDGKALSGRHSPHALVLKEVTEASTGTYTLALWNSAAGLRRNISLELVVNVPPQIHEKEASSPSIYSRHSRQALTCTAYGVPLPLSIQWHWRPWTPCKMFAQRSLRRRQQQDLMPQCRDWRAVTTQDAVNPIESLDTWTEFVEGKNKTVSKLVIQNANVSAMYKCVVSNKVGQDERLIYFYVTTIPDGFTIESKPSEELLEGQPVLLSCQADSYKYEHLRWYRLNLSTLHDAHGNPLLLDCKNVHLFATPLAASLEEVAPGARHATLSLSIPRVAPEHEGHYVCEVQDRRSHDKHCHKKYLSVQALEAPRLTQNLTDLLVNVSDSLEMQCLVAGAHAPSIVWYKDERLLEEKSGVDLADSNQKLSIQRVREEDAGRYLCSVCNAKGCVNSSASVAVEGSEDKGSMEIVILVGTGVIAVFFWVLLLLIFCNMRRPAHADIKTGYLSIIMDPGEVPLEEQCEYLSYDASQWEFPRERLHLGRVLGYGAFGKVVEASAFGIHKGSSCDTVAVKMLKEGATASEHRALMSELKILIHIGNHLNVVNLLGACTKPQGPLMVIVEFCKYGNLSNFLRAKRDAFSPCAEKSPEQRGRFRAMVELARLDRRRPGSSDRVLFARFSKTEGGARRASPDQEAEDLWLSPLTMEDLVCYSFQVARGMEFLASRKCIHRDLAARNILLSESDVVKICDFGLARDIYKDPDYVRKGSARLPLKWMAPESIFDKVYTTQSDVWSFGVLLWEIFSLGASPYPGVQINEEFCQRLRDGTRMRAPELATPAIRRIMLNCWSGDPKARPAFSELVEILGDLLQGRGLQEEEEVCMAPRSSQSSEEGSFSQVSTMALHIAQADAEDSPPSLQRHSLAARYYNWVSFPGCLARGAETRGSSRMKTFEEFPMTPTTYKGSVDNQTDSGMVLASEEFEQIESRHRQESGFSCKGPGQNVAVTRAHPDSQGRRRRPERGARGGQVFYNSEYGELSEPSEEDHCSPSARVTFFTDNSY

[6] = molecular target: T3, Mitogen-activated protein kinase kinase kinase 7 (Homo sapiens) (UniProt O43318); assay: MAP3K7/MAP3K7IP1 (TAK1-TAB1) Kinase screen; conditions: Compound concentration 1.0 uM
T3 sequence (whole entry): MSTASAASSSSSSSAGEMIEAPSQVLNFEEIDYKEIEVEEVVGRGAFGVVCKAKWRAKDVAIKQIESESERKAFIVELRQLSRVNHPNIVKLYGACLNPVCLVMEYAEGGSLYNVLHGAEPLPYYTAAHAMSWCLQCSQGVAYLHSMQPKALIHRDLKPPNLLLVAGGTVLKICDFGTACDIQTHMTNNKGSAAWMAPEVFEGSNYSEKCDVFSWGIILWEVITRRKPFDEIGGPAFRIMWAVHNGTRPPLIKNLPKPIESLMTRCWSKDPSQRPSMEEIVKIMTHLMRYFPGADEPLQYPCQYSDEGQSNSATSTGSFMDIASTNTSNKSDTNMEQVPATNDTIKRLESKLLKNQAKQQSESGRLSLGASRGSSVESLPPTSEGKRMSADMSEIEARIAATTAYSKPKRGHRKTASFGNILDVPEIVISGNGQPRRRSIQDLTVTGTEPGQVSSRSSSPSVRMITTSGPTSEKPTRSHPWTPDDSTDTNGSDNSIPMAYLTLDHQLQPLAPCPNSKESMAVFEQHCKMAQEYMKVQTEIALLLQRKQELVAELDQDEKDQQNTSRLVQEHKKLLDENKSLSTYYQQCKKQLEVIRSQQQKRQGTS

[7] = molecular target: Casein kinase I isoform gamma-2 (Homo sapiens) (UniProt P78368); assay: CSNK1G2 (CK1 gamma 2) Kinase screen; conditions: Compound concentration 1.0 uM
Casein kinase I isoform gamma-2 (Homo sapiens), sequence (P78368 whole entry, looked up, canonical isoform): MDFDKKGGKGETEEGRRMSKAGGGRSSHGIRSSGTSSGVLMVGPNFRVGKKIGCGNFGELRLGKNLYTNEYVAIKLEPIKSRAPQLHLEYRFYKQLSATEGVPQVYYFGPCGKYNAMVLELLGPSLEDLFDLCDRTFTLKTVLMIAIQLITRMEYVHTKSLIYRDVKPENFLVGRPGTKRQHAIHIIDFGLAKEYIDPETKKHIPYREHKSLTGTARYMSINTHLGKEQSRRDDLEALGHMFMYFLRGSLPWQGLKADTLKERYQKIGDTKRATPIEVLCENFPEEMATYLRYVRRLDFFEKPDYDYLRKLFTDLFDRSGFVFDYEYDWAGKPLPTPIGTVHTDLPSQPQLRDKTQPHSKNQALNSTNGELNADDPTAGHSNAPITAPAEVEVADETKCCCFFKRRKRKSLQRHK

Measured: inhibition

C[C@@H]1CN(c2cc(-c3n[nH]c4ccc(OC5(C)CC5)cc34)ncn2)C[C@H](C)O1 [MLi-2]
inactive: [1] 2.23% | [2] 6.06% | [3] 16.2% | [4] 30% | [5] 8.71% | [6] -4.42% | [7] 2.4%
